Several values for one entry are separate records, joined by “and”; a condition that tells them apart may be missing. Identical values can stand only once.
Assays:
E. coli IH3080 (K1:O18) = test: Experimental E. coli peritonitis model in mice (Example 12); assay type: in vivo
Procedure: A suspension of E. coli IH3080 (K1:O18) in saline (0.9% NaCl) was prepared from an overnight culture on a blood agar plate (Statens Serum Institut, Copenhagen, Denmark). All mice (female NMR1 from Harlan Scandinavia, Allerød, Denmark; weight, 25-30 g) were inoculated intraperitoneally with 0.5 ml of the suspension containing 0.96×10^6 CFU per ml in the lateral lower quadrant of the abdomen. At 1 h, the CFU count was determined from three mice and the remaining mice (four mice per group) were treated with a subcutaneous injection of 0.2 ml of erythromycin solution in saline (corresponding to 5 mg/kg body weight) or NAB7061 solution in saline (corresponding to 5 mg/kg body weight), or both erythromycin and NAB7061 (corresponding to 5 mg/kg body weight of both drugs; given at two separate sites). Control group received two 0.2 ml injections of saline. At 4.5 h postinfection, all mice were anaesthetized with CO2 and sacrificed. Sterile saline (2 ml) was injected intraperitoneally and the abdomen was gently massaged before it was opened and the fluid sampled. Appropriate dilutions of the fluid were plated on blood agar plates, the plates were incubated overnight, and the colonies were counted.

E. cloacae ATCC23355 [1] = test: E-test MIC with or without NAB7061 (4 μg/ml), Mueller-Hinton agar; assay type: cell-based, Enterobacter cloacae
Procedure: (§1) MICs were determined by using E-strips (Biodisk Ltd., Solna, Sweden) according to the manufacturer's instructions.
(§2) The strains originated from ATCC (11 strains), CCUG (11 strains), and NCTC (The National Collection of Type Cultures, Colindale, U.K.; 2 strains). Eight strains (the F-strains) were purchased from Mobidiag Ltd., Helsinki, Finland.

[2] = test system: E. coli (ATCC25922 and IH3080), K. pneumoniae ATCC13883, and E. cloacae ATCC23355; test: E-test sensitization by NAB7061, range over the tested strains; assay type: cell-based; settings: four tested strains
Procedure: as §1

E. coli IH3080 [3] = test: E-test MIC with or without NAB7061 (4 μg/ml), Mueller-Hinton agar; assay type: cell-based, Escherichia coli
Procedure: as §1, §2

K. pneumoniae ATCC13883 [4] = settings: K. pneumoniae ATCC13883
Procedure: as §1, §2

E. coli ATCC25922 [5] = settings: E. coli ATCC25922
Procedure: as §1, §2

C. freundii ATCC8090 = test: Growth inhibition around wells on LB agar plates; assay type: cell-based, Citrobacter freundii
Procedure: (§3) From an overnight-grown culture of IH3080 on LB agar, a suspension of approx. 10^8 cells/ml was prepared in 0.9% NaCl. Aliquots of this suspension were then pipetted on the agar plates and the plates were gently shaken to spread the suspension evenly on the entire surface of the plate. Thereafter, the unabsorbed part of the suspension was removed by using a Pasteur pipette. After the surface had dried, small wells (diameter, 2 mm) were drilled on the plates (five wells per plate) by using a sterile sharp-edged narrow metal tube, single-use pipette tip, and vacuum suction. An alternative method used a swab to spread the inoculum. Samples (4 μl and 10 μl) of the peptide solution in 0.9% NaCl (at concentrations of 1 μg/ml and 0.1 μg/ml) were then pipetted to the wells and the sample fluids were allowed to absorb. Controls included 0.9% NaCl solution without the compound to be tested. The plates were then incubated for 18 h at 37° C. whereafter the diameters of growth inhibition zones around each well were measured; the diameter of the well itself was not reduced. Finally, the diameters were converted to surface areas of growth inhibition (in square mm).
(§4) The susceptibility of eleven Gram-negative bacterial strains (nine different species) to NAB734 and polymyxin B was compared by using the susceptibility determination method described in Example 2. The strains included those belonging to the species of Serratia marcescens and Proteus mirabilis, both species generally known to be resistant to polymyxin. Furthermore, the susceptibility determination was also performed by using the Gram-positive bacterium, Staphylococcus aureus, also generally known to be polymyxin-resistant. Ten of the strains originated from ATCC (American Type Culture Collection, Manassas, Va., U.S.A.), and one from CCUG (Culture Collection of University of Gothenburg, Sweden). The source of E. coli IH3080 has been described in Example 2. Polymyxin B sulfate was from Sigma-Aldrich (St. Louis, Mo., USA).

E. coli ATCC25922 [6] = test: Growth inhibition around wells on LB agar plates; assay type: cell-based, Escherichia coli
Procedure: as §3, §4

S. marcescens ATCC8100 = test: Growth inhibition around wells on LB agar plates; assay type: cell-based, Serratia marcescens
Procedure: as §3, §4

[7] = test system: Pseudomonas aeruginosa ATCC 27853; test: Growth inhibition around wells on LB agar plates; assay type: cell-based; settings: Ps. aeruginosa ATCC 27853
Outline: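 Activity against Pseudomonas aeruginosa ATCC 27853 was assessed by agar well diffusion on LB plates. A suspension of about 10^8 cells/ml in 0.9% NaCl was spread over the agar and the excess removed. Once the surface had dried, 2 mm wells were drilled and filled with peptide dissolved in 0.9% NaCl. Plates were incubated 18 h at 37° C, and inhibition zone diameters were converted to areas in square mm.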

E. coli IH3080 [8] = test: Sensitization to rifampin: growth inhibition around wells on LB plates containing rifampin; assay type: cell-based, Escherichia coli; settings: 4 μg of compound
E. cloacae ATCC23355 [9] = test: Growth inhibition around wells on LB agar plates; assay type: cell-based, Enterobacter cloacae
Procedure: as §3, §4

A. baumannii ATCC 19606 = test: Sensitization to rifampin: growth inhibition around wells on LB plates containing rifampin; assay type: cell-based, Acinetobacter baumannii; settings: 4 μg
P. mirabilis ATCC29906 = test: Growth inhibition around wells on LB agar plates; assay type: cell-based, Proteus mirabilis
Procedure: as §3, §4

E. coli IH3080 [10] = test: Growth inhibition around wells on LB agar plates; assay type: cell-based, Escherichia coli; settings: 10 μg of compound per well
Outline: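 Growth inhibition of encapsulated E. coli IH3080 (K1:O018) was assessed on LB agar plates. A suspension of about 10^8 cells/ml in 0.9% NaCl, made from an overnight LB agar culture, was spread across the plate surface and the excess removed. After drying, 2 mm wells were drilled, with 0.9% NaCl as control. Following 18 h at 37° C., inhibition zone diameters around wells were converted to areas in square mm.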

[11] = test system: Acinetobacter baumannii ATCC 19606; test: Growth inhibition around wells on LB agar plates; assay type: cell-based; settings: A. baumannii ATCC 19606
[12] = test system: Ps. aeruginosa ATCC 27853; test: Sensitization to rifampin: growth inhibition around wells on LB plates containing rifampin; assay type: cell-based, Pseudomonas aeruginosa; settings: 4 μg
K. oxytoca ATCC13182 = test: Growth inhibition around wells on LB agar plates; assay type: cell-based, Klebsiella oxytoca
Procedure: as §3, §4

S. aureus ATCC 25923 = test: Growth inhibition around wells on LB agar plates; assay type: cell-based, Staphylococcus aureus
Procedure: as §3, §4

K. pneumoniae ATCC13883 [13] = test: Growth inhibition around wells on LB agar plates; assay type: cell-based, Klebsiella pneumoniae
Procedure: as §3, §4

K. pneumoniae CCUG45421 = test: Growth inhibition around wells on LB agar plates; assay type: cell-based, Klebsiella pneumoniae
Procedure: as §3, §4

Q: For `CC[C@H]1OC(=O)[C@H](C)[C@@H](O[C@H]2C[C@@](C)(OC)[C@@H](O)[C@H](C)O2)[C@H](C)[C@@H](O[C@@H]2O[C@H](C)C[C@H](N(C)C)[C@H]2O)[C@](C)(O)C[C@@H](C)C(=O)[C@H](C)[C@@H](O)[C@]1(C)O` [Erythromycin], which “CFU counts in peritoneal fluid” value (E. coli IH3080 (K1:O18); 4.5 h postinfection ([…] after treatment), 5 mg/kg subcutaneous) is on record?
A: 8.9 (±6.4)×10^6 per ml

Q: And the “factor by which the bacterial count increased” value (E. coli IH3080 (K1:O18); from 1 h to 4.5 h postinfection)?
A: 12

Q: And the “Sensitization factor to antibiotic (MIC without / with 4 μg/ml of NAB 7061)” value (E. cloacae ATCC23355 [1])?
A: 21-43

Q: What about the “Sensitization factor to antibiotic at 4 μg/ml of NAB7061, range over the tested strains” value [2] of the same molecule?
A: 21-48

Q: What about the “Sensitization factor to antibiotic (MIC without / with 4 μg/ml of NAB 7061)” value (E. coli IH3080 [3]) of the same molecule?
A: 32-42

Q: And the “Sensitization factor to antibiotic (MIC without / with 4 μg/ml of NAB 7061)” value (K. pneumoniae ATCC13883 [4])?
A: 24-48

Q: What about the “Sensitization factor to antibiotic (MIC without / with 4 μg/ml of NAB 7061)” value (E. coli ATCC25922 [5]) of the same molecule?
A: 32-48

Q: “OA-Thr-DSer-cy[Dab-Dab-DPhe-Thr-Dab-Dab-Thr-] [NAB 734]” was tested. Which “growth inhibition around a well” value (C. freundii ATCC8090; 4 μg) did it give?
A: 133 square millimeters

Q: And the “growth inhibition around a well” value (C. freundii ATCC8090; 10 μg)?
A: 177 square millimeters

Q: What about the “growth inhibition around a well” value (E. coli ATCC25922 [6]; 4 μg) of the same molecule?
A: 133 square millimeters

Q: What about the “growth inhibition around a well” value (E. coli ATCC25922 [6]; 10 μg) of the same molecule?
A: 177 square millimeters

Q: And the “growth inhibition around a well” value (S. marcescens ATCC8100; 4 μg)?
A: 0 square millimeters

Q: What about the “growth inhibition around a well” value (S. marcescens ATCC8100; 10 μg) of the same molecule?
A: 0 square millimeters

Q: And the “growth inhibition around a well” value ([7]; 4 μg)?
A: 13 square millimeters

Q: And the “growth inhibition around a well” value ([7]; 10 μg)?
A: 50 square millimeters

Q: And the “growth inhibition around a well in the presence of rifampin” value (E. coli IH3080 [8]; rifampin 0 μg/ml)?
A: 113 square millimeters

Q: And the “growth inhibition around a well in the presence of rifampin” value (E. coli IH3080 [8]; rifampin 0.1 μg/ml)?
A: 154 square millimeters

Q: What about the “growth inhibition around a well in the presence of rifampin” value (E. coli IH3080 [8]; rifampin 1.0 μg/ml) of the same molecule?
A: 201 square millimeters

Q: And the “growth inhibition around a well” value (E. cloacae ATCC23355 [9]; 4 μg)?
A: 133 square millimeters

Q: And the “growth inhibition around a well” value (E. cloacae ATCC23355 [9]; 10 μg)?
A: 177 square millimeters

Q: And the “growth inhibition around a well in the presence of rifampin” value (A. baumannii ATCC 19606; rifampin 0 μg/ml)?
A: 38 square millimeters

Q: And the “growth inhibition around a well in the presence of rifampin” value (A. baumannii ATCC 19606; rifampin 0.1 μg/ml)?
A: 201 square millimeters

Q: What about the “growth inhibition around a well in the presence of rifampin” value (A. baumannii ATCC 19606; rifampin 0.3 μg/ml) of the same molecule?
A: 283 square millimeters

Q: And the “growth inhibition around a well” value (P. mirabilis ATCC29906; 4 μg)?
A: 0 square millimeters

Q: And the “growth inhibition around a well” value (P. mirabilis ATCC29906; 10 μg)?
A: 0 square millimeters

Q: What about the “growth inhibition around a well” value (E. coli IH3080 [10]) of the same molecule?
A: 177 square millimeters

Q: And the “growth inhibition around a well” value ([11]; 4 μg)?
A: 38 square millimeters and 57 square millimeters

Q: And the “growth inhibition around a well” value ([11]; 10 μg)?
A: 95 square millimeters and 79 square millimeters

Q: And the “growth inhibition around a well in the presence of rifampin” value ([12]; rifampin 0 μg/ml)?
A: 13 square millimeters

Q: And the “growth inhibition around a well in the presence of rifampin” value ([12]; rifampin 0.3 μg/ml)?
A: 20 square millimeters

Q: And the “growth inhibition around a well” value (K. oxytoca ATCC13182; 4 μg)?
A: 95 square millimeters

Q: What about the “growth inhibition around a well” value (K. oxytoca ATCC13182; 10 μg) of the same molecule?
A: 143 square millimeters

Q: And the “growth inhibition around a well” value (S. aureus ATCC 25923; 4 μg)?
A: 0 square millimeters

Q: And the “growth inhibition around a well” value (S. aureus ATCC 25923; 10 μg)?
A: 0 square millimeters

Q: What about the “growth inhibition around a well” value (K. pneumoniae ATCC13883 [13]; 4 μg) of the same molecule?
A: 64 square millimeters

Q: And the “growth inhibition around a well” value (K. pneumoniae ATCC13883 [13]; 10 μg)?
A: 113 square millimeters

Q: And the “growth inhibition around a well” value (K. pneumoniae CCUG45421; 4 μg)?
A: 64 square millimeters

Q: What about the “growth inhibition around a well” value (K. pneumoniae CCUG45421; 10 μg) of the same molecule?
A: 104 square millimeters

— patent US8329645B2, “Polymyxin derivatives and uses thereof” (priority 2008, dated 2012)
